Source: publication PMC9685055, “Biological activity of new bioactive steroids deriving from biotransformation of cortisone” (Microbial Cell Factories, 2022)

Experiments:
[1] = target: T1, cyclooxygenase (COX) (Ovis aries, UniProt P05979); test: Cyclooxygenase inhibitory assay (fluorescence COX activity kit); format: biochemical; conditions: purified COX preparation, 50 µM, positive control
T1 construct: purchased Cayman 700200
T1 sequence (P05979 25-600): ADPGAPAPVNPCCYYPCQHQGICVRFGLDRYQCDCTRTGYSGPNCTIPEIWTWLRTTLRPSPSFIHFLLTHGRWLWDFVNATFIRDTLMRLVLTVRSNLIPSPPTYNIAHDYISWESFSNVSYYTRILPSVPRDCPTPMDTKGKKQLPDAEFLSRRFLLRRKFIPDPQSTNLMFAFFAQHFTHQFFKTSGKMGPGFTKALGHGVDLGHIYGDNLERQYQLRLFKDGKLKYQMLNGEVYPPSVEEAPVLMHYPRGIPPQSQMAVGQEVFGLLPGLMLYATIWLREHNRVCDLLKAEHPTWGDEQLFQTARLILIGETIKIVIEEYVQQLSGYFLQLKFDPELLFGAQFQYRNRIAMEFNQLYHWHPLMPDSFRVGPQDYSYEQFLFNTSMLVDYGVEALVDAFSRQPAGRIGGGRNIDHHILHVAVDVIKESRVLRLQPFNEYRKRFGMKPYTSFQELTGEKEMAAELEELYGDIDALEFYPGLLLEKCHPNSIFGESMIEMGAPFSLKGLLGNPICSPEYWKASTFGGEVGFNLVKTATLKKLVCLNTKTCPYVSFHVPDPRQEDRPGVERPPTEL
Protocol: Cyclooxygenase (COX) activity assay was determined by using a fluorescence COX activity assay kit (Cayman, No. 700200) for detecting COX-1 and COX-2 activity in purified enzyme and tissue homogenate preparations. The assay was conducted by monitoring the appearance of fluorescent compound resofurin in accordance to the supplier recommendation. Aspirin (acetylsalicylic acid; 50 µM) served as positive control. The test compounds were dissolved in 1–2% DMSO (v/v) at 4 different concentrations (0.1, 1, 10 and 100 µM) and added to a purified COX preparation. A 1–2% DMSO solution was added to control plates. The plates were shaken for a few seconds and incubated for 5 min at 25 °C. The fluorescence was measured by using an excitation wavelength of 540 nm and an emission wavelength of 590 nm. Average fluorescent values were calculated for all the samples (n = 3/group) in order to determine the percentage of inhibition in respect to control (i.e. untreated) plates.

[2] = test system: p65 NF-κB nuclear translocation in HaCaT cells; test: TNFα-induced p65 NF-κB nuclear translocation, immunofluorescence; format: cell-based; conditions: positive control (betamethasone-17-valerate 10 µg/mL), then 10 ng/mL TNFα 1 h
Protocol: HaCaT cells were cultured with Dulbecco’s modified Eagle’s medium High Glucose (Lonza, Milan, Italy) supplemented with 10% FBS, 100 U/mL penicillin, 100 μg/mL streptomycin and 2 mM L-glutamine as previously described. Cells were maintained in a humidified incubator at 37 °C with 5% CO2 and incubated until the monolayer was 80% confluent. Medium was changed every 2 days.
HaCaT cells were pretreated with or without 10 μM of both SCA and SCB for 24 h. Stock solutions of the two compounds were prepared in DMSO immediately before use and diluted to the final concentration in the culture medium. In some sets of experiments, betamethasone-17-valerate (10 µg/mL) served as a positive control; dimethyl sulfoxide (DMSO) served as a solvent control. After the pretreatments, cells were stimulated with 10 ng/mL TNFα for 1 h to induce the NFκB signaling pathway. Then, media were replaced with fresh culture medium. Cells and supernatants were collected at different time points for each set of experiments as described below.
Briefly, HaCaT cells were seeded on coverslips at a density of 1 × 10^5 cell/mL and incubated with DMEM high glucose supplemented with FBS 10%. Then, HaCaT cells were treated as indicated above. At the end of the proinflammatory stimulus with TNFα, cells were fixed in 4% paraformaldehyde in PBS for 30 min at 4 °C as previously described. HaCaT cells were permeabilized for 5 min at RT with PBS containing 0.2% Triton X-100. After the blocking with 1% BSA in PBS at RT for 1 h, HaCaT cells were incubated with p65 NF-κB primary antibody (1:100, sc-372; Santa Cruz Biotechnology, Inc., Dallas, Texas, USA) in PBS containing 0.5% BSA at 4 °C overnight. After washing, coverslips were incubated with appropriate secondary antibody for 1 h at RT. Nuclei were stained with 1 μg/mL DAPI (Sigma- Aldrich, Italy) for 1 min. […] Fluorescence was examined using an Epifluorescence microscope (Nikon Eclipse E800; Nikon Corporation, Surrey, UK) equipped with a plan apochromat 100 × 0.5 − 1.3 oil immersion objective and a mercury lamp source.

[3] = Photochemiluminescence (PCL-ACL) antioxidant assay; conditions: 0.1 mg/mL; Trolox equivalents per g of sample
Protocol: Photochemiluminescence assay, based on the methodology of Popov and Lewin [35], was performed to measure the antioxidant activity of cortisone, SCA and SCB compounds against superoxide anion radicals generated from luminol, a photosensitizer, when exposed to UV light at λmax = 351 nm. The antioxidant activity of compounds was measured using ACL kits (Analytic Jena, Jena, Germany) with a Photochem apparatus (Analytic Jena, Jena, Germany). In the PCL-ACL assay, the photochemical generation of free radicals is combined with the sensitive detection using chemiluminescence. In ACL studies, the kinetic light emission curve was monitored for 3 min and expressed as mM Trolox equivalents. The areas under the curves were calculated using the PCL soft control and analysis software. […] The observed inhibition of the signal was plotted against the concentration of Trolox added to the assay medium. The concentration of the added sample was such that the generated luminescence during the 3 min sampling interval fell within the limits of the standard curve. For ACL assay, 2.3 mL of reagent 1 (solvent and dilution reagent, methanol), 0.2 mL of reagent 2 (buffer solution), 25 μL of reagent 3 (photosensitizer: luminol 1 mmol L^−1), and 10 μL of standard or sample solution were mixed and measured. Luminol is used as a photosensitizer and as a detecting substance for free radicals. Trolox were used for the standard calibration curve from […].

## CC(=O)Oc1ccccc1C(=O)O [aspirin, acetylsalicylic acid, reference compound]
[1]
  effect on COX activity: strongly inhibited

## C[C@H]1C[C@H]2[C@@H]3CCC4=CC(=O)C=C[C@]4(C)[C@@]3(F)[C@@H](O)C[C@]2(C)[C@@]1(O)C(=O)CO [betamethasone, reference compound]
[2]
  effect on TNFα-mediated p65 activation: only partly prevented

## C[C@]12CCC(=O)C=C1CC[C@@H]1[C@@H]2C(=O)C[C@@]2(C)[C@H]1CC[C@]2(O)C(=O)CO [cortisone]
[3]
  antioxidant capacity, PCL-ACL assay: 0.13 µmol/g
